Experiment: pKA value in aqueous solution
Conditions: for pKa: aqueous solution

| pKa | Compound | pKA (buffer) |
| --- | --- | --- |
| 7.73 | COC(=O)CN | – |
| – | Nc1ccccn1 [2-AMINOPYRIDINE] | 7.6 |
| 8.62 | NCc1ccccn1 | – |
| 8.9 | COC(=O)C(N)CCCCNC(=O)OC(C)(C)C (stereo not drawn) | – |
| 10.8 | COC(=O)C(CCCCN)NC(=O)OC(C)(C)C (stereo not drawn) | – |

| Compound | pKa | pKA (buffer) |
| --- | --- | --- |
| NCCc1ccccn1 | 9.52 | – |
| CN(C)c1ccc(N)cc1 | 6.71 | – |
| NCCc1ccccc1 [PHENETHYLAMINE] | 9.08 | – |
